One test concerns the target T1, PAH2 domain of SIN3A (Mus musculus, UniProt Q60520).
T1 construct: The PAH2 domain of mSin3A was overexpressed in the E. coli BL21 (DE3) codon plus RIL strain; His tag (inferred from Ni2+ chelating column); made in house; host or cells: E. coli BL21 (DE3) codon plus RIL
T1 sequence (Q60520 300-383 limits assumed): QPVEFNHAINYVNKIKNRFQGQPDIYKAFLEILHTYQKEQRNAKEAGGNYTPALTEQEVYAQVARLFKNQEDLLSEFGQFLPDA
Briefly: Fluorescence anisotropy competition assay, FITC-labeled Mad1 peptide probe. The following applies: 70 nM PAH2 domain, 10 nM probe, PBS pH 7.4, 0.01% BSA, 1 h, 25°C; read-out: IC50, competition for binding to FITC-labeled MAD probe. Here is the method: The PAH2 domain of mSin3A was overexpressed in the E. coli BL21 (DE3) codon plus RIL strain (Stratagene) by addition of 1 mM isopropyl-1-thio-D-galactopyranoside and incubation overnight at 15°C. Harvested cells were re-suspended in 50 mM sodium phosphate buffer, pH 7.4, supplemented with 500 mM sodium chloride, 5% glycerol, and 0.1% Igepal CA-630 and lysed using a microfluidizer (Micro-fluidics) at 20,000 psi. After clarification of the crude extract by high-speed centrifugation, the lysate was loaded onto a 5 ml HiTrap chelating column (GE Healthcare) charged with Ni2+. The column was washed and the protein was eluted with 30 mM HEPES pH 7.4, 250 mM sodium chloride, and 250 mM imidazole. The protein was next purified on a Superdex75 column (GE Healthcare) equilibrated with 20 mM Tris-HCl buffer, pH 8.0, and 150 mM sodium chloride. Fractions containing the pure protein were combined and concentrated with 3 kDa MWCO centrifugal filters (Amicon).
The binding affinity of pSID for SIN3A was assessed in a fluorescence anisotropy competition assay using a fluorescein isothiocyanate-labeled Mad1 peptide as an assay probe. […] Measurements were obtained after a 1 h incubation of the fluorescent ligand and the protein at 25°C with a Safire 2 microplate reader (Tecan). […]

Test [1] relates to H3K4me3 at the CDH1 and ESR1 promoters. Further details: method as in PMID 20547842. The following applies: SID peptide, longer time period; cited from earlier work.
For test [2], the system named is MDA-MB-231 cells. As to the kind of experiment: Aldefluor ALDH1 activity in MDA-MB-231. In kind it is cell-based, human. As to conditions: 1 μM, 72 h; mean of three independent experiments; p = 0.0395. Here is the method: (§1) For aldehyde dehydrogenase assay, cells were dissociated with PBS-EDTA and tested for ALDH activity (2 × 10^5 cells/sample), using the Aldefluor assay (Aldegen) according to the manufacturer's instructions. For CD44 and CD24 antigens, cells were dissociated with Accutase, washed with PBS and incubated with PE-conjugated anti-CD24 and APC-conjugated anti-CD44 antibodies (BD Biosciences) for 40 minutes in ice. For quantification of NANOG, OCT4 and SOX2 dissociated cells were fixed with 1% paraformaldehyde (15 min at RT), permeabilized with 0.5% TritonX100 (10 min at RT) and incubated with 1:100 diluted antibodies against NANOG, OCT4 and SOX2 (Cell Signaling) for 1 h at room temperature. The cells were then washed and incubated with fluorophore-conjugated secondary antibodies Abcam). FACS analysis was carried out using a FACScanto flow cytometer, DIVA software program for acquisition (BD Biosciences) and FlowJo (Treestar.) software for analysis.

Another test deals with 4T1 cells. Briefly: Lung metastasis of 4T1 cells in Balb/c mice. In kind it is in vivo, mouse. Here is the method:
4T1 cells were treated for 14 days with water, Tat-Scr (2.5 μM) or Tat-SID (1 & 2.5 μM) and then inoculated orthotopically in the inguinal mammary gland of Balb/c mice (n = 5). […] Tumor volumes were calculated as ellipsoids (Dxd^2/2) by measuring the main diameter (D) and the smaller diameter (d) and plotted versus time (days). The experiment was stopped when tumors in the control group reached ∼500 mm^3, then, the mice were sacrificed, tumors were isolated for weight and lungs were isolated for metastatic foci analysis. Similar experiment was also performed using MMTV-Myc cells. In another set of experiments 4T1 cells stably transfected with Scr-shRNA or PF1-shRNA were inoculated in interscapular space of Balb/c mice (n = 10). […] Tumor-free survival was calculated from Kaplan-Meier curves, and statistical significance was determined using the log-rank test for survival and the t-test for tumor growth. Metastatic dissemination was evaluated by dissecting the lungs from sacrificed mice and inspecting the Bouin-fixed (Sigma) lung surface for lesions using a stereoscope (Nikon SMZ800 stereoscope X3 to X5). […] After 6 days, the number of colonies formed (each originating from a single tumor cell) were counted to evaluate the number of disseminated tumor cells (DTCs). To evaluate DTC proliferation, the number of cells per colony were counted using ImageJ software.

Test [3] relates to MDA-MB-231 cells. Briefly: FACS CD44/CD24 in MDA-MB-231. In kind it is cell-based, human. The following applies: 1 μM, 72 h; mean of three independent experiments; p = 0.01. Here is the method:
as §1

Test [4] deals with MDA-MB-231 cells. As to the kind of experiment: 3D culture colony morphogenesis of MDA-MB-231. In kind it is cell-based, human. The following applies: 3D matrigel, 10 days. Here is the method: MDA-MB-231 cells were cultured on 8 chambered wells (BD Biosciences) and fixed with 4% paraformaldehyde/PBS for 15 min at room temperature. For 3D cultures cells were seeded (3 × 10^3/well) in quadruplicate onto Matrigel (BD Biosciences) or Cultrex basement membrane extracts (Trevigen) in 8-well culture slides to prepare three-dimensional cultures as described earlier. […] Colony morphology was determined by phase-contrast microscopy. For immunostaining, cells were permeabilized with 0.5% Triton X-100/PBS and blocked with 10% normal goat serum (Invitrogen) in PBS for 1 h. Primary antibodies were incubated overnight at 4°C in blocking buffer and washed 3 times with washing buffer (0.05% Triton X-100/PBS) and once with PBS. Secondary antibodies (dilution 1:200 in 1% normal goat serum/PBS) were added for 1 h and then washed. The samples were then mounted with ProLong Gold antifade reagent with DAPI (Molecular Probes/Invitrogen, CA), following the manufacturer instructions. All incubations and washes were done at 4 or 25°C as required. Confocal microscopy was performed using a Leica SP5 confocal microscope at the Shared Instrumentation facility of department of Hematology at Mount Sinai School of Medicine, NY.

For orientation: pIC50 means the negative decadic logarithm of the IC50, by convention in mol/L.

pIC50: −log10 of the molar value. Peptide text beside a SMILES is read from it.

As to `CC[C@H](C)[C@H](NC(=O)[C@H](CC(C)C)NC(=O)[C@H](CC(C)C)NC(=O)[C@H](CCC(=O)O)NC(=O)[C@H](Cc1ccccc1)NC(=O)[C@@H]1CCCN1C(=O)[C@H](CCCNC(=N)N)NC(=O)[C@H](CCCNC(=N)N)NC(=O)[C@H](CC(C)C)NC(=O)[C@H](CCC(N)=O)NC(=O)CNC(=O)CNC(=O)CNC(=O)[C@H](CCC(N)=O)NC(=O)[C@H](CCCNC(=N)N)NC(=O)[C@H](CCCNC(=N)N)NC(=O)[C@H](CCCCN)NC(=O)[C@H](CCCCN)NC(=O)[C@H](CCCNC(=N)N)NC(=O)CNC(=O)[C@@H](N)Cc1ccc(O)cc1)C(=O)N[C@@H](C)C(=O)N[C@@H](C)C(=O)N[C@@H](C)C(=O)N[C@@H](CCSC)C(=O)N[C@@H](CCC(=O)O)C(=O)N[C@@H](CCCNC(=N)N)C(=O)N[C@@H](CC(N)=O)C(=O)N1CCC[C@H]1C(=O)N[C@H](C(=O)N[C@@H](CCC(N)=O)C(=O)O)[C@@H](C)O` [PF1-SID] (H-YGRKKRRQGGGQLRRPFELLIAAAMERNPTQ-OH), at PAH2 domain of SIN3A, the pIC50 was 4.81.
For the compound `CC[C@H](C)[C@H](NC(=O)[C@H](CC(N)=O)NC(=O)[C@H](CCSC)NC(=O)[C@H](CCCNC(=N)N)NC(=O)[C@@H](NC(=O)CNC(=O)CNC(=O)CNC(=O)[C@H](CCC(N)=O)NC(=O)[C@H](CCCNC(=N)N)NC(=O)[C@H](CCCNC(=N)N)NC(=O)[C@H](CCCCN)NC(=O)[C@H](CCCCN)NC(=O)[C@H](CCCNC(=N)N)NC(=O)CNC(=O)[C@@H](N)Cc1ccc(O)cc1)C(C)C)C(=O)N[C@@H](CCC(N)=O)C(=O)N[C@@H](CCSC)C(=O)N[C@@H](CC(C)C)C(=O)N[C@@H](CC(C)C)C(=O)N[C@@H](CCC(=O)O)C(=O)N[C@@H](C)C(=O)N[C@@H](C)C(=O)N[C@@H](CC(=O)O)C(=O)N[C@@H](Cc1ccc(O)cc1)C(=O)N[C@@H](CC(C)C)C(=O)N[C@@H](CCC(=O)O)C(=O)N[C@@H](CCCNC(=N)N)C(=O)N[C@@H](CCCNC(=N)N)C(=O)N[C@@H](CCC(=O)O)C(=O)N[C@@H](CCCNC(=N)N)C(=O)O` [Tat-SID] (H-YGRKKRRQGGGVRMNIQMLLEAADYLERRER-OH), on PAH2 domain of SIN3A, the pIC50 was 5.90.
Take “SID peptide: SID peptide expressed from a plasmid vector over a longer time period (previous study) (YGRKKRRQGGGVRMNIQMLLEAADYLERRER)”: the “H3K4me3 at CDH1 and ESR1 promoters” value in test [1] is recorded as “dramatic increases in H3K4^me3”.
“YGRKKRRQGGG-EQRARRIMERLLEYNMVADL [Tat-Scr]”: in the test with MDA-MB-231 cells [2], the “ALDH+ cells, mean” value worked out at 21.3%. In addition, the “number of lung metastasis, median” value in the test with 4T1 cells (4T1 treated ex vivo with 2.5 μM, n = 5, Tat-SID p = 0.0446 versus Tat-Scr, vehicle 23) came to 13. In addition, the “decrease in lung metastasis versus vehicle” value in the test on 4T1 cells (Tat-Scr 2.5 μM, p = 0.2107) is on record as “not statistically significant”. Besides, the “CD44low/CD24low/neg population, mean” value in the test on MDA-MB-231 cells [3] is given as 6.7%. Further, in the test with MDA-MB-231 cells [4], the colony morphology entry is given as “disorganized colonies with invasive projections”.

The record behind these values is PMC4741438, “Targeting the SIN3A-PF1 interaction inhibits epithelial to mesenchymal transition and maintenance of a stem cell phenotype in triple negative breast cancer” (Oncotarget, 2015).
